Data from US20260297085A1, “1 H-PYRROLO[2,3-B]PYRIDIN-4-YL]-2-OXOPYRROLIDINE-3-CARBONITRILE DERIVATIVES AS TYROSINE KINASE 2 (TYK2) INHIBITORS FOR THE TREATMENT OF INFLAMMATORY DISEASES” (BIOGEN MA INC., priority 2023, published 2026).
Counter-ions that a name gives are not always drawn.

Tests used:
[1] = molecular target: T1, human TYK2 kinase domain (JH1) (Homo sapiens, UniProt P29597); assay: JH1 biochemical assay for TYK2 (ADP-Glo kinase assay, recombinant JH1 catalytic domain, JAK3-974 peptide, 10 μM ATP)
T1 construct: recombinantly generated catalytic kinase (also known as JH1) domain of human JAK1, JAK2, JAK3 and TYK2
T1 sequence (P29597 897-1176 limits assumed): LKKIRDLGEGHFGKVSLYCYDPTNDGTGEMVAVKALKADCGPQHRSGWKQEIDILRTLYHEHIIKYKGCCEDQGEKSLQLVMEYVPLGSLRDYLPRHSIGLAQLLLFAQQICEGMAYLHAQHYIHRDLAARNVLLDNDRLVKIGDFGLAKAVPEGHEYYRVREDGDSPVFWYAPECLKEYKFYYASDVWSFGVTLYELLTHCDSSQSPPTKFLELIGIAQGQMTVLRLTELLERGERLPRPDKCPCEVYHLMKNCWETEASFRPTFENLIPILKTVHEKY
How it was run: (§1)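 Compounds were titrated in 11 points of 3-fold dilution starting at 10 μM or 1 μM. Enzyme (JAK1 4 nM, JAK2 0.2 nM, JAK3 0.3 nM, TYK2 2 nM) and 50 μM peptide reacted for 100 minutes, followed by ADP-to-luminescence detection; IC50 by 4-parameter fit.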

[2] = molecular target: JAK2 kinase activity on STAT5 in TF1 cells (Homo sapiens, UniProt O60674); assay: pSTAT5 cell assay (MSD; TF1 cells, 30 ng/mL IL-3 stimulation); assay type: cell-based; details: 30 ng/mL IL-3, 15 minutes
Sequence of JAK2 kinase activity on STAT5 in TF1 cells (O60674 whole entry): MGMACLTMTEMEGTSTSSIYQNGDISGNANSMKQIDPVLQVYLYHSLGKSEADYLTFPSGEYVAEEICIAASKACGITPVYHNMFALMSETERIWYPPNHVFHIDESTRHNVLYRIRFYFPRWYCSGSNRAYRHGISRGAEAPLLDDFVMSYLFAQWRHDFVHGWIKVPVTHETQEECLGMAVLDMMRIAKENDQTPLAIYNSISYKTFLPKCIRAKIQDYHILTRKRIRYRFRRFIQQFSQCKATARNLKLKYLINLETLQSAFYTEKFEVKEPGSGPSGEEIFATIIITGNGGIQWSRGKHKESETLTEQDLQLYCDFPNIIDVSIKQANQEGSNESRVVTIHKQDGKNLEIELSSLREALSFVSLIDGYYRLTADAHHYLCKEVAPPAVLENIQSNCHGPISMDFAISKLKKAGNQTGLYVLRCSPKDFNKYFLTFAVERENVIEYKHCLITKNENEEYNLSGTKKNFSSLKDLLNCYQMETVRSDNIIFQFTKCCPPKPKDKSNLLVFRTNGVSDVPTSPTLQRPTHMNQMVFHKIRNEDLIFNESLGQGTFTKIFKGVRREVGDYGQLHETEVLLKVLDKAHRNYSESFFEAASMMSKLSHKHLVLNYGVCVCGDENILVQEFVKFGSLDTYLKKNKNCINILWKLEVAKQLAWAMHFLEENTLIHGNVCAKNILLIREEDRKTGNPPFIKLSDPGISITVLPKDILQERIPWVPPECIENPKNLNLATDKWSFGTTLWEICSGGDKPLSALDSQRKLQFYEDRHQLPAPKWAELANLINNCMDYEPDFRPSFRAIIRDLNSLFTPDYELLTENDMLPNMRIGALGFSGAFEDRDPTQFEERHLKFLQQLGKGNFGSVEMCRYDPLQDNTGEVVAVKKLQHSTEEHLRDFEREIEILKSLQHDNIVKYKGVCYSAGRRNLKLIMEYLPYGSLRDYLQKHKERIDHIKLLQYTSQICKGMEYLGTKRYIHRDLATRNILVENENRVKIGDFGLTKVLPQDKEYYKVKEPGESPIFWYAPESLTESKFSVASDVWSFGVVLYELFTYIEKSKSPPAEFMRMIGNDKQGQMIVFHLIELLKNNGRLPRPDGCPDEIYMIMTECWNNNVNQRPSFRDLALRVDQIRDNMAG
How it was run: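 IC50 from a 4-parameter logistic fit of normalized pSTAT5 signal, measured by MSD in lysates of TF1 cells. Cells were serum-starved, exposed to compound for 1 h (top concentration 10 μM, four-fold, 10 points), then given IL-3 at 30 ng/mL for 15 min.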

[3] = molecular target: T2, human JAK2 kinase domain (JH1) (Homo sapiens, UniProt O60674); assay: JH1 biochemical assay for JAK2 (ADP-Glo kinase assay, recombinant JH1 catalytic domain, JAK3-974 peptide, 15 μM ATP)
T2 construct: recombinantly generated catalytic kinase (also known as JH1) domain of human JAK1, JAK2, JAK3 and TYK2
T2 sequence (O60674 849-1124 limits assumed): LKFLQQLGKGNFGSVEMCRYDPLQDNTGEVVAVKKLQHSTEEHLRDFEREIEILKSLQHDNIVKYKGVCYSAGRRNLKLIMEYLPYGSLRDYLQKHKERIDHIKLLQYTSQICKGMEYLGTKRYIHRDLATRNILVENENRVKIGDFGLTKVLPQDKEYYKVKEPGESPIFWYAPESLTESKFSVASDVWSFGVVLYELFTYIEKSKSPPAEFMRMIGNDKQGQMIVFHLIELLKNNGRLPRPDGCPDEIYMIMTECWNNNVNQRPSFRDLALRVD
How it was run: as §1

[4] = molecular target: T3, human JAK1 kinase domain (JH1) (Homo sapiens, UniProt P23458); assay: JH1 biochemical assay for JAK1 (ADP-Glo kinase assay, recombinant JH1 catalytic domain, JAK3-342 peptide, 35 μM ATP)
T3 construct: recombinantly generated catalytic kinase (also known as JH1) domain of human JAK1, JAK2, JAK3 and TYK2
T3 sequence (P23458 875-1153 limits assumed): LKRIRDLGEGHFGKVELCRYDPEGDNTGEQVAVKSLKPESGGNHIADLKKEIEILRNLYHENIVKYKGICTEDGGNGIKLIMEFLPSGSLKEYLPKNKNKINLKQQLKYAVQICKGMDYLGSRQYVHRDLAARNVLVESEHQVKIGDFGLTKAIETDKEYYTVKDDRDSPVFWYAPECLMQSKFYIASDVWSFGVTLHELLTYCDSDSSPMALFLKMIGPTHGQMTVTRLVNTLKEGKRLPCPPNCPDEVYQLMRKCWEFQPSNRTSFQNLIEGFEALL
How it was run: as §1

[5] = molecular target: Tyk2 kinase activity on STAT4 in NK92 cells (Homo sapiens, UniProt P29597); assay: pSTAT4 cell assay (MSD; NK92 cells, 30 ng/mL IL2 stimulation); assay type: cell-based; details: 30 ng/mL IL2, 15 minutes
Sequence of Tyk2 kinase activity on STAT4 in NK92 cells (P29597 whole entry): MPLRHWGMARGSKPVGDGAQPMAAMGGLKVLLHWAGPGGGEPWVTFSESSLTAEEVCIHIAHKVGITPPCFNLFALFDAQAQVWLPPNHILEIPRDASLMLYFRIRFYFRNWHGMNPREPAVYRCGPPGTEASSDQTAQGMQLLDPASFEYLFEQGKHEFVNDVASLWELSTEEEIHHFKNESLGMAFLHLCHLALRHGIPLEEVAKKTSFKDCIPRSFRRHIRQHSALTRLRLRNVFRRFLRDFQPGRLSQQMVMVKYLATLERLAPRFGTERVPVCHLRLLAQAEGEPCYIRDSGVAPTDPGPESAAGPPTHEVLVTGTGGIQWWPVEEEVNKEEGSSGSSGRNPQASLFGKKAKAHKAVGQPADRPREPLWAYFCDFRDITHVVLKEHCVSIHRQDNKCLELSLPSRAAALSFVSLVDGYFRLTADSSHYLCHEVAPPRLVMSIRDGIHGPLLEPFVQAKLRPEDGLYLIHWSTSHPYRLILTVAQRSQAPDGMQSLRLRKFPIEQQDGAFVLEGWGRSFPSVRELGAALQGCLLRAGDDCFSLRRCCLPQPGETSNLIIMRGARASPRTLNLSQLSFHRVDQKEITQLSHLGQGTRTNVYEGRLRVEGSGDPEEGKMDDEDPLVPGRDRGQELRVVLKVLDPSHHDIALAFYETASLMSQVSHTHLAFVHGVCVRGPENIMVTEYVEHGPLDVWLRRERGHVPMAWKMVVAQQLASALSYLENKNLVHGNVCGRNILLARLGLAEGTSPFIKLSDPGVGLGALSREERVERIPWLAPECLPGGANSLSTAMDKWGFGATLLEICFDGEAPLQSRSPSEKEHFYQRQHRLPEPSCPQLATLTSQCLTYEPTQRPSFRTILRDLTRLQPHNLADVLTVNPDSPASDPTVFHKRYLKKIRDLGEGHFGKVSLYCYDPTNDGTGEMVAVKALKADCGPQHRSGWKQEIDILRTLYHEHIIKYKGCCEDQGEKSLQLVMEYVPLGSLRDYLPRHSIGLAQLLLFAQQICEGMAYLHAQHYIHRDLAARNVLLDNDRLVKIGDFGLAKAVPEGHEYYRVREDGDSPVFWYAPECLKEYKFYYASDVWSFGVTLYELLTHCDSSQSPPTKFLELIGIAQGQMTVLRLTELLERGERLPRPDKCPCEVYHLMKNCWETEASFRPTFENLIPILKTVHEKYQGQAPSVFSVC
How it was run: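 Compound treatment of starved NK92 cells ran 1 hr before a 15-minute, 30 ng/mL IL2 pulse; lysates went to an MSD anti-STAT4 antibody assay, with curves fitted by 4-parameter logistic model.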

[6] = molecular target: JAK1 kinase activity on STAT3 in TF1 cells (Homo sapiens, UniProt P23458); assay: pSTAT3 cell assay (MSD; TF1 cells, 30 ng/mL IL-6 stimulation); assay type: cell-based; details: 30 ng/mL IL-6, 15 minutes
Sequence of JAK1 kinase activity on STAT3 in TF1 cells (P23458 whole entry): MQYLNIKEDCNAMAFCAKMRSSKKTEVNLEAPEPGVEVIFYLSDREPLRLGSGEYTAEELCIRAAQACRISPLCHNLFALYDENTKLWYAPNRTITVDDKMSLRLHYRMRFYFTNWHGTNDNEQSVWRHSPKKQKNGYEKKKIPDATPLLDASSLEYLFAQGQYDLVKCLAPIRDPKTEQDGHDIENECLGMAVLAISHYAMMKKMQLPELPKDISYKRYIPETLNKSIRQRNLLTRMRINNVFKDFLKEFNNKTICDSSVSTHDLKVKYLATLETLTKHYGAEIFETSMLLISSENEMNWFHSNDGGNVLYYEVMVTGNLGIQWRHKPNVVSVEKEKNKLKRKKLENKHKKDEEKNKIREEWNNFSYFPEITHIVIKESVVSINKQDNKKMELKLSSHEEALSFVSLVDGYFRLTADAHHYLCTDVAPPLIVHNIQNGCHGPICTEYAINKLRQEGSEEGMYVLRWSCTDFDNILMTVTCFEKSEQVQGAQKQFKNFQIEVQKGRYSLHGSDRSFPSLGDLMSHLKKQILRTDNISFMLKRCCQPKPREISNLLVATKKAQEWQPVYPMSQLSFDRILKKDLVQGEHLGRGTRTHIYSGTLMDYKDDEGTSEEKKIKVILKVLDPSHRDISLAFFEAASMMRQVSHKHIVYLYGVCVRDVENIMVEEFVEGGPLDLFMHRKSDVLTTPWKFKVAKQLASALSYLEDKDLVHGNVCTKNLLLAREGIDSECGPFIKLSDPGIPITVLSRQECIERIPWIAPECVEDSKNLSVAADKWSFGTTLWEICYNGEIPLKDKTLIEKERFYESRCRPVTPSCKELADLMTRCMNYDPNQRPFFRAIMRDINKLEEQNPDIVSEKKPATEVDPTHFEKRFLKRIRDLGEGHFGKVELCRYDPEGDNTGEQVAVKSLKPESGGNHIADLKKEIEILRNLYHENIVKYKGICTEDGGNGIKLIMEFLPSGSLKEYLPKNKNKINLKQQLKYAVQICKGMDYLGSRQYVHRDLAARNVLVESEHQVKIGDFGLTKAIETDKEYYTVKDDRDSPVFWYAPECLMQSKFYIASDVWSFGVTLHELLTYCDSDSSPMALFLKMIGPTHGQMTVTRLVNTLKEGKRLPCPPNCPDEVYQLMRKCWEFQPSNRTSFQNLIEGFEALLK
How it was run: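 IC50 values derive from 4-parameter logistic fits of normalized pSTAT3 signal, measured by MSD with anti-STAT3 antibodies. TF1 cells, serum-starved beforehand, received compound for 1 hour (top concentration 10 μM, four-fold steps, 10 points) before a 15-minute IL-6 (30 ng/mL) stimulus.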

[7] = molecular target: T4, human JAK3 kinase domain (JH1) (Homo sapiens, UniProt P52333); assay: JH1 biochemical assay for JAK3 (ADP-Glo kinase assay, recombinant JH1 catalytic domain, JAK3-974 peptide, 4 μM ATP)
T4 construct: recombinantly generated catalytic kinase (also known as JH1) domain of human JAK1, JAK2, JAK3 and TYK2
T4 sequence (P52333 822-1111 limits assumed): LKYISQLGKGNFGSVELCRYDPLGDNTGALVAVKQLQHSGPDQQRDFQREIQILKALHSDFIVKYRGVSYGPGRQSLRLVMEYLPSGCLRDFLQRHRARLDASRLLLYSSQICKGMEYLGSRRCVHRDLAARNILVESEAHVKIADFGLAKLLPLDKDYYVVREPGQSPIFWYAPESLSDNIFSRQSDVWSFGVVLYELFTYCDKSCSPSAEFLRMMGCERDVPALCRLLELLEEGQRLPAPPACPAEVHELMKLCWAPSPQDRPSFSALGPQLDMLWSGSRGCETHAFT
How it was run: as §1

SMILES	IC50 ([1]; TYK2 JH1, ADP-Glo) [nM]	IC50 [2] [nM]	IC50 ([3]; JAK2 JH1, ADP-Glo) [nM]	IC50 ([4]; JAK1 JH1, ADP-Glo) [nM]	IC50 [5] [nM]	IC50 [6] [nM]	IC50 ([7]; JAK3 JH1, ADP-Glo) [nM]	IC50 ([1]; JH1 kinase domain, ADP-Glo) [nM]	IC50 ([3]; JH1 kinase domain, ADP-Glo) [nM]	IC50 ([4]; JH1 kinase domain, ADP-Glo) [nM]	IC50 ([7]; JH1 kinase domain, ADP-Glo) [nM]
C[C@@H]1CN(c2ccnc3cc(-c4cnn(C5CC5)c4)oc23)C(=O)[C@]1(C#N)C1CC1 [Example 347, (3R,4S)-3-cyclopropyl-1-(2-(1-cyclopropyl-1H-pyrazol-4-yl)furo[3,2-b]pyridin-7-yl)-4-methyl-2-oxopyrrolidine-3-carbonitrile]	< 5	5000 to 10000	100 to 1000	100 to 1000	> 100	1000 to 5000	100 to 1000				
C[C@@H]1CN(c2ccnn3cc(-c4cnn(C5CCCCC5)c4)cc23)C(=O)[C@]1(C#N)C1CC1 [Example 169, (3R,4S)-1-(6-(1-cyclohexyl-1H-pyrazol-4-yl)pyrrolo[1,2-b]pyridazin-4-yl)-3-cyclopropyl-4-methyl-2-oxopyrrolidine-3-carbonitrile]		1000 to 5000			> 100	1000 to 5000		< 5	< 100	< 100	< 100
C[C@@H]1CN(c2ccnn3cc(-c4ccc(C(=O)N(C)C)cn4)cc23)C(=O)[C@]1(C#N)C1CC1 [Example 124, 6-(4-((3R,4S)-3-cyano-3-cyclopropyl-4-methyl-2-oxopyrrolidin-1-yl)pyrrolo[1,2-b]pyridazin-6-yl)-N,N-dimethylnicotinamide trifluoroacetate]		5000 to 10000			> 100	5000 to 10000		5 to 20	100 to 1000	100 to 1000	100 to 1000
COc1cncc(-c2cn3nccc3c(N3C[C@@H](C)[C@@](C#N)(C4CC4)C3=O)n2)c1 [Example 244, (3R,4S)-3-cyclopropyl-1-(6-(5-methoxypyridin-3-yl)pyrazolo[1,5-a]pyrazin-4-yl)-4-methyl-2-oxopyrrolidine-3-carbonitrile trifluoroacetate]	5 to 20	> 10000	100 to 1000	100 to 1000	> 100	5000 to 10000	100 to 1000				
C[C@@H]1CN(c2ccnn3cc(-c4cnn(-c5cccnc5)c4)cc23)C(=O)[C@]1(C#N)C1CC1 [Example 159, (3R,4S)-3-cyclopropyl-4-methyl-2-oxo-1-(6-(1-(pyridin-3-yl)-1H-pyrazol-4-yl)pyrrolo[1,2-b]pyridazin-4-yl)pyrrolidine-3-carbonitrile]		5000 to 10000			50 to 100	1000 to 5000		< 5	100 to 1000	100 to 1000	100 to 1000
C[C@@H]1CN(c2ccnn3cc(-c4ccc(N(C)C)cn4)cc23)C(=O)[C@]1(C#N)C1CC1 [Example 134, (3R,4S)-3-cyclopropyl-1-(6-(5-(dimethylamino)pyridin-2-yl)pyrrolo[1,2-b]pyridazin-4-yl)-4-methyl-2-oxopyrrolidine-3-carbonitrile trifluoroacetate]		5000 to 10000			> 100	1000 to 5000		5 to 20	100 to 1000	100 to 1000	100 to 1000
C[C@@H]1CN(c2ccnn3cc(-c4cn(C5COC5)nc4F)cc23)C(=O)[C@]1(C#N)C1CC1 [Example 321, (3R,4S)-3-cyclopropyl-1-(6-(3-fluoro-1-(oxetan-3-yl)-1H-pyrazol-4-yl)pyrrolo[1,2-b]pyridazin-4-yl)-4-methyl-2-oxopyrrolidine-3-carbonitrile]	< 5	1000 to 5000	< 100	100 to 1000	50 to 100	1000 to 5000	100 to 1000				
CO[C@H]1C[C@H](n2cc(-c3cc4ncsc4c(N4C[C@@H](C)[C@@](C#N)(C5CC5)C4=O)n3)cn2)C1 [Example 355, (3R,4S)-3-cyclopropyl-1-(6-(1-((1r,3R)-3-methoxycyclobutyl)-1H-pyrazol-4-yl)thiazolo[5,4-c]pyridin-4-yl)-4-methyl-2-oxopyrrolidine-3-carbonitrile]	< 5	< 100	< 100	< 100	20 to 50	< 100	< 100				
C[C@@H]1CN(c2nc(-c3cnn(C4CC5(COC5)C4)c3)cn3ncc(F)c23)C(=O)[C@]1(C#N)C1CC1 [Example 298, (3R,4S)-1-(6-(1-(2-oxaspiro[3.3]heptan-6-yl)-1H-pyrazol-4-yl)-3-fluoropyrazolo[1,5-a]pyrazin-4-yl)-3-cyclopropyl-4-methyl-2-oxopyrrolidine-3-carbonitrile]	< 5	100 to 1000	< 100	< 100	50 to 100	100 to 1000	< 100				
C[C@@H]1CN(c2nc(-c3ccc(S(C)(=O)=O)nc3)cn3nccc23)C(=O)[C@]1(C#N)C1CC1 [Example 257, (3R,4S)-3-cyclopropyl-4-methyl-1-(6-(6-(methylsulfonyl)pyridin-3-yl)pyrazolo[1,5-a]pyrazin-4-yl)-2-oxopyrrolidine-3-carbonitrile trifluoroacetate]	5 to 20	5000 to 10000	100 to 1000	< 100	> 100	1000 to 5000	100 to 1000				
C[C@@H]1CN(c2ccnn3cc(-c4cn[nH]c4)cc23)C(=O)[C@]1(C#N)C1CC1 [Example 59, (3R,4S)-1-(6-(1H-pyrazol-4-yl)pyrrolo[1,2-b]pyridazin-4-yl)-3-cyclopropyl-4-methyl-2-oxopyrrolidine-3-carbonitrile trifluoroacetate]		5000 to 10000			50 to 100	1000 to 5000		< 5	100 to 1000	< 100	100 to 1000
C[C@@H]1CN(c2nc(-c3cnc4c(c3)OCC(=O)N4C)cn3nccc23)C(=O)[C@]1(C#N)C1CC1 [Example 235, (3R,4S)-3-cyclopropyl-4-methyl-1-(6-(4-methyl-3-oxo-3,4-dihydro-2H-pyrido[3,2-b][1,4]oxazin-7-yl)pyrazolo[1,5-a]pyrazin-4-yl)-2-oxopyrrolidine-3-carbonitrile trifluoroacetate]	< 5	> 10000	100 to 1000	< 100	> 100	> 10000	100 to 1000				
C[C@@H]1CN(c2ncnn3cc(-c4cnn(C)c4)cc23)C(=O)[C@]1(C#N)C1CC1 [Example 180, (3R,4S)-3-cyclopropyl-4-methyl-1-(6-(1-methyl-1H-pyrazol-4-yl)pyrrolo[2,1-f][1,2,4]triazin-4-yl)-2-oxopyrrolidine-3-carbonitrile]		5000 to 10000			> 100	1000 to 5000		> 100	5000 to 10000	> 10000	> 10000
